Reference: ChEMBL document CHEMBL2331425, “Triazolo and imidazo dihydropyrazolopyrimidine potassium channel antagonists” (Bioorg Med Chem Lett, 2013)
Values belong to the compound of their own block, whether it stands above or below them.

How the values were obtained:
[1] = Clearance in Sprague-Dawley rat at 1 mg/kg, iv; assay type: ADME, organism-based; design: dose 1 mg/kg, route intravenous; conditions: in vivo
[2] = Half life in Sprague-Dawley rat at 1 mg/kg, iv; assay type: ADME, organism-based; design: dose 1 mg/kg, route intravenous; conditions: in vivo
[3] = biological target: T1, Nuclear receptor subfamily 1 group I member 2 (Homo sapiens, UniProt O75469); assay: Transactivation of PXR (unknown origin)
T1 sequence (O75469 whole entry): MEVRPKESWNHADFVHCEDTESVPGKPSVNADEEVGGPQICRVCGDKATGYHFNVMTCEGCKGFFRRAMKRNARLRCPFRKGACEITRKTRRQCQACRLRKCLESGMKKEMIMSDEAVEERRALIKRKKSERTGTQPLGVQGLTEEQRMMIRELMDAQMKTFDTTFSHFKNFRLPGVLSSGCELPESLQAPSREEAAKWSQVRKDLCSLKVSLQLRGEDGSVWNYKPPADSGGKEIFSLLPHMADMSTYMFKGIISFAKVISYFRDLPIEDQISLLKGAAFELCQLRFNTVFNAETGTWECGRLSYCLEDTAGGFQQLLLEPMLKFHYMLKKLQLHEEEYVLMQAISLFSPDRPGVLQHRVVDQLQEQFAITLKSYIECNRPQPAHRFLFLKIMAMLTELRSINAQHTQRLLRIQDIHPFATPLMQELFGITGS

[4] = biological target: T2, Potassium voltage-gated channel subfamily A member 5 (Homo sapiens, UniProt P22460); assay: Antagonist activity at human Kv1.5 expressed in mouse L929 cells assessed as inhibition of delayed rectifier repolarization current by patch clamp assay; assay type: cell-based
T2 sequence (P22460 whole entry): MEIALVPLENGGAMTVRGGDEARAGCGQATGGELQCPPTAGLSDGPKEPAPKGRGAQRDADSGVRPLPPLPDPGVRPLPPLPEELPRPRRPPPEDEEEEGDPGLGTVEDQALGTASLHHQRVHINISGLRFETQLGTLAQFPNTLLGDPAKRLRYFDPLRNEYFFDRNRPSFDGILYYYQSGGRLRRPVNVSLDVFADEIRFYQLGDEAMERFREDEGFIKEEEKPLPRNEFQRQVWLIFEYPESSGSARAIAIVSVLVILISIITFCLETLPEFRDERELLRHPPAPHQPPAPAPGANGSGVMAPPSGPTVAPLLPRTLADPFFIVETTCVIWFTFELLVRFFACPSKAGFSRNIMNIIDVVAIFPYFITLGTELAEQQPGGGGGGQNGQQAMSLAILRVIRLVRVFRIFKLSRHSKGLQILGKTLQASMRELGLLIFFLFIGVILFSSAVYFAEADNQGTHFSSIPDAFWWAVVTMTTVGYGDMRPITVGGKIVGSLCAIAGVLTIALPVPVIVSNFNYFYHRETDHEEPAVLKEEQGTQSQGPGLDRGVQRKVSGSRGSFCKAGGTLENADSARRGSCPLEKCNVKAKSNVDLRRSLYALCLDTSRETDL

[5] = biological target: T2, Potassium voltage-gated channel subfamily A member 5; assay: Antagonist activity at human Kv1.5 expressed in mouse L929 cells assessed as inhibition of delayed rectifier repolarization current at 0.3 uM by patch clamp assay relative to control; assay type: cell-based
[6] = biological target: Voltage-gated L-type calcium channel (Homo sapiens, UniProt Q13936+Q13698+Q01668+O60840); assay: Inhibition of L-type calcium channel (unknown origin)
[7] = Inhibition of sodium channel (unknown origin); design: species or system Homo sapiens
[8] = Drug uptake in Sprague-Dawley rat brain at 0.3 mg/kg, iv administered as 5 mins infusion measured after 10 mins; assay type: ADME, organism-based; design: dose 0.3 mg/kg, route intravenous; conditions: read-out: Drug uptake
[9] = Plasma concentration in Sprague-Dawley rat at 0.3 mg/kg, iv administered as 5 mins infusion measured after 10 mins; assay type: ADME, organism-based; design: dose 0.3 mg/kg, route intravenous
[10] = Plasma concentration in Sprague-Dawley rat at 0.3 mg/kg, iv administered as 5 mins infusion measured at 5 mins; assay type: ADME, organism-based; design: dose 0.3 mg/kg, route intravenous
Rattus norvegicus [11] = assay: Antiarrhythmic activity in Sprague-Dawley rat assessed as decrease in ventricular effective refractory period at 0.3 mg/kg, iv administered as 5 mins infusion measured after 5 mins relative to control; assay type: functional, Heart; design: scale not given: the % may be the effect or the level left
Rattus norvegicus [12] = assay: Antiarrhythmic activity in Sprague-Dawley rat assessed as decrease in QT interval at 0.3 mg/kg, iv administered as 5 mins infusion measured after 5 mins relative to control; assay type: functional, Heart; design: scale not given: the % may be the effect or the level left
Rattus norvegicus [13] = assay: Antiarrhythmic activity in Sprague-Dawley rat assessed as increase in heart rate at 0.3 mg/kg, iv administered as 5 mins infusion measured after 5 mins relative to control; assay type: functional
Rattus norvegicus [14] = assay: Antiarrhythmic activity in Sprague-Dawley rat assessed as decrease in blood pressure at 0.3 mg/kg, iv administered as 5 mins infusion measured after 5 mins; assay type: functional; design: scale not given: the % may be the effect or the level left
Cytochrome P450 3A4 = Cytochrome P450 3A4 (Homo sapiens, UniProt P08684); assay: Inhibition of CYP3A4 (unknown origin); assay type: ADME
Sequence of Cytochrome P450 3A4 (P08684 whole entry): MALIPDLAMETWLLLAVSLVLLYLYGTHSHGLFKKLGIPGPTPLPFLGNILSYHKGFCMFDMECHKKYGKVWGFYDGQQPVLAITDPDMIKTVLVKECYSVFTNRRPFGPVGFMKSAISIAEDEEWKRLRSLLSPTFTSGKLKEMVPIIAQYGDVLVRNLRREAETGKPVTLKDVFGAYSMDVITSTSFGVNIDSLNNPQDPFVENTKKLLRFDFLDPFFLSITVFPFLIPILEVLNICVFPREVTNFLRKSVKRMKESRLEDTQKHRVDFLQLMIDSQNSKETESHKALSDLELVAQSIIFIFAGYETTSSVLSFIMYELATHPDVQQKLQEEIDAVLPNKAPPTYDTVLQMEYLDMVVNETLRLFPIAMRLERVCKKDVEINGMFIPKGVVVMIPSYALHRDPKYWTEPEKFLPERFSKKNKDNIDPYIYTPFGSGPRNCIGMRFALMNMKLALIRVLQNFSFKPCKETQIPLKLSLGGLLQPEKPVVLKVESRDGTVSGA

Cytochrome P450 2D6 = Cytochrome P450 2D6 (Homo sapiens, UniProt P10635); assay: Inhibition of CYP2D6 (unknown origin); assay type: ADME
Sequence of Cytochrome P450 2D6 (P10635 whole entry): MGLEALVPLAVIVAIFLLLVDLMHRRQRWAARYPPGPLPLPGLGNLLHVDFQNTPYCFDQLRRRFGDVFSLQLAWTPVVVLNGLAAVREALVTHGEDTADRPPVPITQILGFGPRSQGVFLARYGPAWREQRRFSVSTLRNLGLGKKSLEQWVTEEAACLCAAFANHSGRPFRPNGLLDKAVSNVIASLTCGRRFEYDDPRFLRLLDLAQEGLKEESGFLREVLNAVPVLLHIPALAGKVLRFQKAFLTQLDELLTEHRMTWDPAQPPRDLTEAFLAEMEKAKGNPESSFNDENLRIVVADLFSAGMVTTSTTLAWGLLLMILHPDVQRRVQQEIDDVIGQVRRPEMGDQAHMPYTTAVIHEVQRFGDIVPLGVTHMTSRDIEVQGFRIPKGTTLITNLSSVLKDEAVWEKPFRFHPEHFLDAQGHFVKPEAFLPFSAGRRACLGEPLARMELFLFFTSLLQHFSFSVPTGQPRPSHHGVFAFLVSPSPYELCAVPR

Cytochrome P450 2C19 = Cytochrome P450 2C19 (Homo sapiens, UniProt P33261); assay: Inhibition of CYP2C19 (unknown origin); assay type: ADME
Sequence of Cytochrome P450 2C19 (P33261 whole entry): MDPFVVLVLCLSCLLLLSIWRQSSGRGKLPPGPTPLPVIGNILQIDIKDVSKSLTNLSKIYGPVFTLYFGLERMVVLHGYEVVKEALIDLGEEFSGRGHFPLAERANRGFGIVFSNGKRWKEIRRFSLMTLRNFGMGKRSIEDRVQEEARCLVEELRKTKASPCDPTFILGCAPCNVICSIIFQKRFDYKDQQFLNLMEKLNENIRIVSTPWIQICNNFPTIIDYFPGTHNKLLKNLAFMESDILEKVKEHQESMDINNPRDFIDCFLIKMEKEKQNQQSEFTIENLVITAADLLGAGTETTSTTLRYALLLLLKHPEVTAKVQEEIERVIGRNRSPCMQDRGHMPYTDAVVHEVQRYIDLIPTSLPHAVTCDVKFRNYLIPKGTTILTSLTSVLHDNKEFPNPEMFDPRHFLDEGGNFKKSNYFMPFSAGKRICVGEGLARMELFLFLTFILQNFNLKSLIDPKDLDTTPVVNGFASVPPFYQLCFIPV

Cytochrome P450 2C9 = Cytochrome P450 2C9 (Homo sapiens, UniProt P11712); assay: Inhibition of CYP2C9 (unknown origin); assay type: ADME
Sequence of Cytochrome P450 2C9 (P11712 whole entry): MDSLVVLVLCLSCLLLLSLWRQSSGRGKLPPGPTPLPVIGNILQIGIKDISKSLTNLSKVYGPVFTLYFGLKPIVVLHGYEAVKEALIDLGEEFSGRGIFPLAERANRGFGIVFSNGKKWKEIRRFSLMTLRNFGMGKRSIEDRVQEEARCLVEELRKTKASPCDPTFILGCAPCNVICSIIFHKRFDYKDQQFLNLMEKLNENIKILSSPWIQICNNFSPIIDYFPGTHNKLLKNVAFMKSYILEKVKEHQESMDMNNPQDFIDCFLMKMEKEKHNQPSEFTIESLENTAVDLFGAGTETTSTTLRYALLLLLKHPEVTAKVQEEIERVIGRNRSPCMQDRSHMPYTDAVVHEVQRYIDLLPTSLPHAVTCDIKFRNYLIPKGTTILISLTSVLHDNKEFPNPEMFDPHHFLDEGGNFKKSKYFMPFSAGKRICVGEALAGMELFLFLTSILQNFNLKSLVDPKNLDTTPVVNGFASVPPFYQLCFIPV

hERG (KCNH2) = hERG (KCNH2) (Homo sapiens, UniProt Q12809); assay: Inhibition of human ERG current in HEK293 cells at 10 uM by patch clamp method relative to control; assay type: cell-based; conditions: HEK293 cells expressing human ERG
Sequence of hERG (KCNH2) (Q12809 whole entry): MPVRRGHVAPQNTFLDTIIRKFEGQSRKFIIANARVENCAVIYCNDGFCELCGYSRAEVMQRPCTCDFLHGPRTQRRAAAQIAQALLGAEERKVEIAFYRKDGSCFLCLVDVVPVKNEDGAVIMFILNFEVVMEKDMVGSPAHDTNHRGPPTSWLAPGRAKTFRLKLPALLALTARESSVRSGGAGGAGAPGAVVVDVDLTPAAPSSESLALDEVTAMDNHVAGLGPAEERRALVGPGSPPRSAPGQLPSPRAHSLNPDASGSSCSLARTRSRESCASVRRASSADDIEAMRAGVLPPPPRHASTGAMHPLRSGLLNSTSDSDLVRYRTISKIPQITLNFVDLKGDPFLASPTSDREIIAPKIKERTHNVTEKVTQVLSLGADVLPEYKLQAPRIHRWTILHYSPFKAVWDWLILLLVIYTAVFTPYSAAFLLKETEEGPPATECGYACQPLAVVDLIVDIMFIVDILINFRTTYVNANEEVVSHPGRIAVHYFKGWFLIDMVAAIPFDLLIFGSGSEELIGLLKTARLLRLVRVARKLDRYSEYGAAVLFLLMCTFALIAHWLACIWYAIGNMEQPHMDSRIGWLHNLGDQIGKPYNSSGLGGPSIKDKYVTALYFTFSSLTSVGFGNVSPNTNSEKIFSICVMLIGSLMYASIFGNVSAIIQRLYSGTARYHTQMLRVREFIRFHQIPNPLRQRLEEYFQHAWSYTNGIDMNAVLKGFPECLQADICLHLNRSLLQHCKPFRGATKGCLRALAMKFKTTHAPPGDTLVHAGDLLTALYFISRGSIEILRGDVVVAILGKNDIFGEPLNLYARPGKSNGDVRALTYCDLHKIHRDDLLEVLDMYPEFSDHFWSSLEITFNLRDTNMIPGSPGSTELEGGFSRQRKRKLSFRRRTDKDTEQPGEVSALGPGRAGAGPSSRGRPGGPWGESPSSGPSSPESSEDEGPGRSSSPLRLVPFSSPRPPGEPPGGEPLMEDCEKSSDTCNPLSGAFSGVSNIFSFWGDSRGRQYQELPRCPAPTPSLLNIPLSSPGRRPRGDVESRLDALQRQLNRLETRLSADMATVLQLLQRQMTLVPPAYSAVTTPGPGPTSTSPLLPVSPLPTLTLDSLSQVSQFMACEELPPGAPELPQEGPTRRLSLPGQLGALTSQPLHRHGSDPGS

clearance [1]: 63 mL/min/kg
half-life [2]: 54 min
EC20 [3]: 110 nM
IC50 [4]: 204 nM
SMILES: CC1=C(c2nccn2C(C)C)[C@@H](c2ccc(Cl)c(Cl)c2)n2nc(C(F)(F)F)cc2N1

inhibition [5]: 6%
SMILES: CC1=C(c2ncnn2CCO)[C@@H](c2ccc(Cl)c(Cl)c2)n2nccc2N1

clearance [1]: 45 mL/min/kg
half-life [2]: 36 min
EC20 [3]: 640 nM
IC50 [4]: 98 nM
SMILES: CCOCCn1ccnc1C1=C(C)Nc2cc(C(F)(F)F)nn2[C@@H]1c1ccc(Cl)c(Cl)c1

inhibition [5]: 25%
SMILES: CC1=C(c2ncnn2-c2ccc(C)cc2)[C@@H](c2ccc(Cl)c(Cl)c2)n2nc(C)cc2N1

IC50 [4]: 102 nM
SMILES: CCCn1ncnc1C1=C(C)Nc2ccnn2[C@@H]1c1ccc(Cl)c(Cl)c1

EC20 [3]: 440 nM
IC50 [4]: 211 nM
SMILES: CC1=C(c2ncnn2-c2cccc(C)n2)[C@@H](c2ccc(Cl)c(Cl)c2)n2nc(C(F)(F)F)cc2N1

IC50 [6]: 5200 nM
IC50 [7]: 46000 nM
concentration at 10 min [8]: 30 nM
concentration at 10 min [9]: 430 nM
concentration at 5 min [10]: 1600 nM
clearance [1]: 29 mL/min/kg
half-life [2]: 72 min
INH (Cytochrome P450 3A4): 40 µM
INH (Cytochrome P450 2D6): 22 µM
INH (Cytochrome P450 2C19): 6 µM
INH (Cytochrome P450 2C9): 7 µM
EC20 [3]: 5000 nM
IC50 [4]: 133 nM
SMILES: CC1=C(c2ncnn2C2CCC(C(F)(F)F)CC2)[C@@H](c2ccc(Cl)c(Cl)c2)n2nc(C(F)(F)F)cc2N1 (single isomer, unassigned; isomer 1)
Activity (Rattus norvegicus [11]): 25%
Activity (Rattus norvegicus [12]): 8%
Activity (Rattus norvegicus [13]): 6%
Activity (Rattus norvegicus [14]): 28%
inhibition at 10 µM (hERG (KCNH2)): 38%

IC50 [4]: 115 nM
SMILES: CC1=C(c2ncnn2-c2ccc(F)cc2)[C@@H](c2ccc(Cl)c(Cl)c2)n2nccc2N1

IC50 [4]: 116 nM
SMILES: COc1ccccc1-n1ncnc1C1=C(C)Nc2ccnn2[C@@H]1c1ccc(Cl)c(Cl)c1

EC20 [3]: 440 nM
IC50 [4]: 410 nM
SMILES: CC1=C(c2ncnn2-c2cc(C)ccn2)[C@@H](c2ccc(Cl)c(Cl)c2)n2nc(C(F)(F)F)cc2N1

IC50 [4]: 229 nM
SMILES: CC1=C(c2ncnn2CC2CC2)[C@@H](c2ccc(Cl)c(Cl)c2)n2nccc2N1

IC50 [4]: 48 nM
SMILES: CC1=C(c2ncnn2C2CCC2)[C@@H](c2ccc(Cl)c(Cl)c2)n2nccc2N1

clearance [1]: 134 mL/min/kg
half-life [2]: 36 min
SMILES: CC1=C(C(=O)N2CCN(c3ccc(F)cc3)CC2)[C@@H](c2ccc(Cl)c(Cl)c2)n2nccc2N1

inhibition [5]: 8%
SMILES: CC1=C(c2ncn[nH]2)[C@@H](c2ccc(Cl)c(Cl)c2)n2nccc2N1

IC50 [4]: 191 nM
SMILES: CCn1ncnc1C1=C(C)Nc2ccnn2[C@@H]1c1ccc(Cl)c(Cl)c1

IC50 [4]: 135 nM
SMILES: CC1=C(c2ncnn2Cc2ccccc2)[C@@H](c2ccc(Cl)c(Cl)c2)n2nccc2N1

EC20 [3]: 70 nM
IC50 [4]: 256 nM
SMILES: CC1=C(c2ncnn2-c2cccc(F)n2)[C@@H](c2ccc(Cl)c(Cl)c2)n2nc(C(F)(F)F)cc2N1

IC50 [4]: 283 nM
SMILES: CC1=C(c2ncnn2C2CCC2)[C@@H](c2ccc(Cl)c(Cl)c2)n2nc(C(C)(C)C)cc2N1

IC50 [4]: 389 nM
SMILES: CC1=C(c2ncnn2-c2ccc(C)cn2)[C@@H](c2ccc(Cl)c(Cl)c2)n2nc(C(F)(F)F)cc2N1

IC50 [4]: 59 nM
SMILES: CC1=C(c2ncnn2C2CCCCC2)[C@@H](c2ccc(Cl)c(Cl)c2)n2nccc2N1
inhibition at 10 µM (hERG (KCNH2)): 87%

IC50 [4]: 103 nM
SMILES: CC1=C(c2ncnn2CCCC(F)(F)F)[C@@H](c2ccc(Cl)c(Cl)c2)n2nccc2N1

inhibition [5]: 14%
SMILES: COc1cccc(-n2cnc(C3=C(C)Nc4cc(C)nn4[C@@H]3c3ccc(Cl)c(Cl)c3)n2)c1

IC50 [4]: 151 nM
SMILES: CC1=C(c2ncnn2CCC(F)(F)F)[C@@H](c2ccc(Cl)c(Cl)c2)n2nccc2N1
